According to ChEMBL document CHEMBL1201862, “PubChem BioAssay data set” (2004):
Calls of active or inactive are those of the source.

Tests used:
[1] = biological target: Dual specificity protein phosphatase 3 (Homo sapiens, UniProt P51452); assay: inhibition constants for human DUSP3 – biochemical, colorimetric, SAR follow-up (AID 2004)
[2] = biological target: FAD-linked sulfhydryl oxidase ALR (Homo sapiens, UniProt P55789); assay: ALR-catalysed DTT oxidation blockers – biochemical, H2O2 detection, luminescence, cherry-pick, dose response (AID 493248)
H4 = assay: Luminescence Cell-Based Dose Response HTS to Identify Activators of 5'UTR Stem-Loop Driven Prion Protein mRNA Translation in H4 Neuroglioblastoma Cells. [Related pubchem assays: 1829 (Project Summary), 1814 (Primary HTS)]; assay type: functional; conditions: Homo sapiens
[3] = Luminescence Cell-Based Dose Confirmation to Identify Activators of 5'UTR Stem-Loop Driven Alpha-Synuclein mRNA Translation in H4 Neuroglioblastoma Cells. [Related pubchem assays: 1829 (Project Summary), 1814 (Primary HTS)]; assay type: functional
[4] = biological target: T1, Rac GTPase-activating protein 1 (Homo sapiens, UniProt Q9H0H5); assay: blockers of MgcRacGAP-driven Rac1 GTP hydrolysis – biochemical, ADP Hunter fluorescence, primary and confirmatory, confirmation (AID 624330); assay type: functional
T1 sequence (Q9H0H5 whole entry): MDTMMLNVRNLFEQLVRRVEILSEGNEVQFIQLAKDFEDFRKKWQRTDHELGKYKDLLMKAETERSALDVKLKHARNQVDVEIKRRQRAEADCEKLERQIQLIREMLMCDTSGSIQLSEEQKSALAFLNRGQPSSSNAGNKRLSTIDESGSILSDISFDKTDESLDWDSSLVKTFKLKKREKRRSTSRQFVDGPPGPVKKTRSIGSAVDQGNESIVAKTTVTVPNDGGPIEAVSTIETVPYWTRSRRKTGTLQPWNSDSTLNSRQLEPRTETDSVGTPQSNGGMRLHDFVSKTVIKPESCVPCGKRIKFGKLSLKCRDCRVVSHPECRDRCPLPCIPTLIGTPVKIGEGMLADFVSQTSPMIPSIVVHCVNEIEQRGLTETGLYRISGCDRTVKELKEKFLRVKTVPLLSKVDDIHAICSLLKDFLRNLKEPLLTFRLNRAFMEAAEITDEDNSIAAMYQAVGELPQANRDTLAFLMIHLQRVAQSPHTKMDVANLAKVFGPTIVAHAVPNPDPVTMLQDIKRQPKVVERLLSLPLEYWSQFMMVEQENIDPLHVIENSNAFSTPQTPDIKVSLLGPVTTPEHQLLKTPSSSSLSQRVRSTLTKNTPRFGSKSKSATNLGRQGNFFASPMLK

[5] = Luminescence Cell-Based Dose Response HTS to Identify Activators of Luciferase Translation or Activity in H4 […] Cells. [Related pubchem assays: 1829 (Project Summary), 1814 (Primary HTS)]; assay type: functional
[6] = biological target: Cyclin-dependent kinase 5/CDK5 activator 1 (Homo sapiens, UniProt Q00535); assay: blockade of human CDK5 activity – biochemical, cherry-picked samples, set 2, dose response (AID 504545)
[7] = Luminescence Cell-Based Dose Response to Identify Activators of 5'UTR Stem-Loop Driven Prion Protein mRNA Translation in H4-C Neuroglioblastoma Cells. [Related pubchem assays: 1829 (Project Summary), 1814 (Primary HTS)]; assay type: functional
[8] = Luminescence Cell-Based Dose Response to Identify Activators of Luciferase Translation or Activity in H4-C Neuroglioblastoma Cells. [Related pubchem assays: 1829 (Project Summary), 1814 (Primary HTS)]; assay type: functional
Vero [9] = assay: inhibition of WNV-induced cytopathic effect – cell-based, CPE readout (AID 1621); assay type: functional; conditions: Chlorocebus sabaeus
Vero [10] = assay: mammalian cell viability reduction – secondary assay, cytotoxicity control for West Nile virus antiviral project, dose response (AID 1650); assay type: functional; conditions: Chlorocebus sabaeus
[11] = biological target: Neurotensin receptor type 1 (Homo sapiens, UniProt P30989); assay type: functional;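 note: Image-based confirmatory dose-response assay measuring agonist activity at NTR1; NTR1-expressing U2OS osteosarcoma cells imaged for beta-arrestin GFP spot formation; agonist potency where compounds increase beta-arrestin recruitment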
Paired box protein Pax-8 = Paired box protein Pax-8 (Homo sapiens, UniProt Q06710); assay: PAX8 transcriptional activity inhibition in RMG-I – RMG-I cells, luciferase, cherry-pick, dose response (AID 687027); assay type: functional, cell-based;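 note: luciferase reporter driven by Pax8 target thyroperoxidase promoter measured by SteadyGlo luminescence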
INS1 = assay: INS-1E survival protection against cytokine death – cell-based, luminescence, retest, dose response (AID 449756); assay type: functional; conditions: Rattus norvegicus;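 note: cell death triggered by IL-1 beta plus TNF-alpha plus IFN-gamma mixture; protective hits raise ATP signal compared with cytokine alone wells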
[12] = reduction of Shn3 3'UTR-driven luciferase in osteoblasts – cell-based, Clone20 osteoblasts, firefly luciferase, cherry-picked, dose response (AID 624132); assay type: functional;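 note: firefly luciferase luminescence from reporter carrying the Shn3 3'UTR in osteoblasts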
[13] = non-specific 3'UTR reporter inhibition in Clone20-Shn3RL – cell-based, Renilla luciferase, cherry-picked, counter-screen for Shn3 inhibitor project, dose response (AID 624133); assay type: functional
[14] = general cell-killing toxicity readout – plate reader, dry powder samples, cytotoxicity control for PAX8 inhibitor project, dose response (AID 743021); assay type: functional, cell-based
[15] = biological target: T2, Short transient receptor potential channel 4 (Mus musculus, UniProt Q9QUQ5); assay: calcium entry via TRPC4 opening agents – cell-based, HEK293 TRPC4/mu-opioid, Fluo-4 calcium, dose response (AID 434937); assay type: functional
T2 sequence (Q9QUQ5 whole entry): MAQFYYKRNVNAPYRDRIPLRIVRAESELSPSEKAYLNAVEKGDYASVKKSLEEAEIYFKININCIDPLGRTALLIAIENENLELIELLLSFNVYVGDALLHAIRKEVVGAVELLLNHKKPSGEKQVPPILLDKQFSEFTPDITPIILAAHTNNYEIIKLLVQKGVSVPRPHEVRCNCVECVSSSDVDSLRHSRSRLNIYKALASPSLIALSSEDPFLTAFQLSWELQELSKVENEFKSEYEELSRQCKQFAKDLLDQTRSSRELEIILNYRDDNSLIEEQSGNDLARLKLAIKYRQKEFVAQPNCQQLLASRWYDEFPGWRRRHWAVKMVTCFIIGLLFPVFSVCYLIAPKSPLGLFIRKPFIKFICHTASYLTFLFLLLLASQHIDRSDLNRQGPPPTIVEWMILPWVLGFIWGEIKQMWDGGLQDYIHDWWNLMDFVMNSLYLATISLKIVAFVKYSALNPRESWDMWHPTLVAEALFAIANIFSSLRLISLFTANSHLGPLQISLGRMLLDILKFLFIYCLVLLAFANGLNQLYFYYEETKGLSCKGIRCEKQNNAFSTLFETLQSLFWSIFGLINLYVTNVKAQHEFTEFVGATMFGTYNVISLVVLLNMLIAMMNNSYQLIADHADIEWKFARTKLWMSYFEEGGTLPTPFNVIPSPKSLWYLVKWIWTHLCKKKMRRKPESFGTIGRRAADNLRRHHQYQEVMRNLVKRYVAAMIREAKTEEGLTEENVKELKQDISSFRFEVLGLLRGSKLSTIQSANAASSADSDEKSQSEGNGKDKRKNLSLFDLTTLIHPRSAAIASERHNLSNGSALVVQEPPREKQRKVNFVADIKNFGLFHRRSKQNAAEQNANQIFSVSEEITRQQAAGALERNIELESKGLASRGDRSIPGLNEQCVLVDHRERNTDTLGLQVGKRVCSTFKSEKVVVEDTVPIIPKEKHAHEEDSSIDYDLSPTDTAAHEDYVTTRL

[16] = biological target: G2/mitotic-specific cyclin-B1 (Homo sapiens, UniProt P14635); assay: HeLa cell cycle G2/M accumulation – FACS, mechanism study for Wee1 degradation inhibitor project, late-stage follow-up, panel member Cyclin B Degradation (AID 2088)
Wee1-like protein kinase = Wee1-like protein kinase (Homo sapiens, UniProt P30291); assay: HeLa cell cycle G2/M accumulation – FACS, mechanism study for Wee1 degradation inhibitor project, late-stage follow-up, panel member Wee1 Degradation (AID 2088)
[17] = biological target: Heat shock 70 kDa protein 1A (Homo sapiens, UniProt P0DMV8); assay: inhibition of Hsp70 binding activity – biochemical, fluorescence polarization, SAR follow-up (AID 1072)
[18] = biological target: T3, Tyrosine-protein phosphatase non-receptor type 7 (Homo sapiens, UniProt P35236); assay type: functional
T3 sequence (P35236 whole entry): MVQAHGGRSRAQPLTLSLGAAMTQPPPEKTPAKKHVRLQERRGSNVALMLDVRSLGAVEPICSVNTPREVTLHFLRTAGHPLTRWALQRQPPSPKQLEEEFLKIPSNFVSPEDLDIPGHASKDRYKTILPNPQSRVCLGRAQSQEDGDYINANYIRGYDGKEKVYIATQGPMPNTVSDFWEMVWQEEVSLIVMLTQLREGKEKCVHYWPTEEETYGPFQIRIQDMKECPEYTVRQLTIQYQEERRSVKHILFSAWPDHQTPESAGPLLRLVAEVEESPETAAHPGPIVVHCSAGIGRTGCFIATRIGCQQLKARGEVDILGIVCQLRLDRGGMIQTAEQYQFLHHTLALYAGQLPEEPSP

[19] = biological target: T4, Dual specificity protein phosphatase 6 (Rattus norvegicus, UniProt Q64346); assay type: functional
T4 sequence (Q64346 whole entry): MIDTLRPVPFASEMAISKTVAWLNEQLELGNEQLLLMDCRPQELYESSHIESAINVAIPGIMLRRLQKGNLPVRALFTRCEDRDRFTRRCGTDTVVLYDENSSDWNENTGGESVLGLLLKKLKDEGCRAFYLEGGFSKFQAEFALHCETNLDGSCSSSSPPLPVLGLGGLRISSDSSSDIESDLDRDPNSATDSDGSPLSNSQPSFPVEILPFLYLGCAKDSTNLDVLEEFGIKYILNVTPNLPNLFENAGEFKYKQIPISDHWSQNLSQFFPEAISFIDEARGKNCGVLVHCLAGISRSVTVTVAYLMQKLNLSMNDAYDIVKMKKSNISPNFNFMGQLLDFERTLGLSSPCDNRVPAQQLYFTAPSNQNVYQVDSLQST

[20] = biological target: Heat shock cognate 71 kDa protein (Homo sapiens, UniProt P11142); assay: In Vitro Hsc70 Dose Response Fluorescence Polarization Assay. [Related pubchem assays: 1072 ]
[21] = biological target: T4, Dual specificity protein phosphatase 6
[22] = biological target: Glyceraldehyde-3-phosphate dehydrogenase (Homo sapiens, UniProt P04406)
[23] = biological target: Melanin-concentrating hormone receptor 1 (Homo sapiens, UniProt Q99705); assay: Late-stage fluorescence-based counterscreen for antagonists of the G-protein coupled receptor 7 (GPR7): cell-based dose response assay to identify antagonists of the melanin-concentrating hormone receptor 1 (MCHR1). [Related pubchem assays (depositor defined):AID1861, AID1880, AID1952, AID2148, AID2251, AID2257, AID485339]; assay type: functional;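 note: stimulated with 30 nM MCH peptide agonist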
Chain of Melanin-concentrating hormone receptor 1 (Q99705 whole entry): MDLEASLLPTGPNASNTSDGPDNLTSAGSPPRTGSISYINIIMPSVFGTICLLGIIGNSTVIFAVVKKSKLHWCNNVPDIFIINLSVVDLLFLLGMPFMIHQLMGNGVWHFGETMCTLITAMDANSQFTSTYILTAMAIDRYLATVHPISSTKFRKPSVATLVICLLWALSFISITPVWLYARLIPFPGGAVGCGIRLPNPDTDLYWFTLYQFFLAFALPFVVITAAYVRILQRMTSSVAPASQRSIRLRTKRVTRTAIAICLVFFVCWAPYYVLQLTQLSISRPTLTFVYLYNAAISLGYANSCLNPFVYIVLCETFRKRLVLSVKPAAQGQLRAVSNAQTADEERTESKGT

Chain of FAD-linked sulfhydryl oxidase ALR (P55789 whole entry): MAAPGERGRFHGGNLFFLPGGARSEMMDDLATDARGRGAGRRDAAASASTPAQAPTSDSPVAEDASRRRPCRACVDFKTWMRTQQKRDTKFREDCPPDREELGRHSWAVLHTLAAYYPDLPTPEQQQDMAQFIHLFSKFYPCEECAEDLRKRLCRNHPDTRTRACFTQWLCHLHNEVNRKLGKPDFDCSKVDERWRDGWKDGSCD
Chain of G2/mitotic-specific cyclin-B1 (P14635 whole entry): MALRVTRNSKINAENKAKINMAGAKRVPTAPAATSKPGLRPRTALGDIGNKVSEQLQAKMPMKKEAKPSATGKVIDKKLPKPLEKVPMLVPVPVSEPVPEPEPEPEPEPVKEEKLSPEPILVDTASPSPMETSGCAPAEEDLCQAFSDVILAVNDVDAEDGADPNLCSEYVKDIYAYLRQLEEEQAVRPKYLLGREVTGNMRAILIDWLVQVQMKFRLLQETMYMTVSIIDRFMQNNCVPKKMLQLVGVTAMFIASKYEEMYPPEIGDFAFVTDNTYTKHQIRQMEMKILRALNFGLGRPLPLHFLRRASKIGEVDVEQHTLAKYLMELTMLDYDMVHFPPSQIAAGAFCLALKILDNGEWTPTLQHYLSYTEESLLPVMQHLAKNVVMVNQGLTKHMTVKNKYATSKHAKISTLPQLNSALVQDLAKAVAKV
Chain of Dual specificity protein phosphatase 3 (P51452 whole entry): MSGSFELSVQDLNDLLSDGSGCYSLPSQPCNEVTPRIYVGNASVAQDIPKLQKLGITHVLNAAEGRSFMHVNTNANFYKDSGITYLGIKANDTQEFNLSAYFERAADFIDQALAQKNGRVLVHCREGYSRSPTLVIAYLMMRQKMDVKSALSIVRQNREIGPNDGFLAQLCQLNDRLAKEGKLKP
Chain of Heat shock 70 kDa protein 1A (P0DMV8 whole entry): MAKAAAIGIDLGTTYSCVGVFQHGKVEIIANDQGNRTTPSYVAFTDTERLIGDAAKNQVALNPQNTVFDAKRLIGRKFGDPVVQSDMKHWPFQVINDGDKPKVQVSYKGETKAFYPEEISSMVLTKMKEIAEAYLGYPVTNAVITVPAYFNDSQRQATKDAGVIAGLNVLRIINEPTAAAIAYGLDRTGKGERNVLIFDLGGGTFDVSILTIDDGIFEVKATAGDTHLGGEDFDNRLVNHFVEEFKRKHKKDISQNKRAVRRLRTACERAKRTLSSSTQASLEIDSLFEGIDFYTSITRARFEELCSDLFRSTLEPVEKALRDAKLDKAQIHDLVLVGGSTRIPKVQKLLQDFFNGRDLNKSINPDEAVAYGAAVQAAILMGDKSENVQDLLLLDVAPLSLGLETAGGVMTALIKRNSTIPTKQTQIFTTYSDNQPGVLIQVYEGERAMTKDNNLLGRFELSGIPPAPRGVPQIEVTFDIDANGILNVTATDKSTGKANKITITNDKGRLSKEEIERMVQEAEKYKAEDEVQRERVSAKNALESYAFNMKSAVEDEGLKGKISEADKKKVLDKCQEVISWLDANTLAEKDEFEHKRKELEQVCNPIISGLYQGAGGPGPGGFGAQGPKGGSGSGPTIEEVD
Chain of Glyceraldehyde-3-phosphate dehydrogenase (P04406 whole entry): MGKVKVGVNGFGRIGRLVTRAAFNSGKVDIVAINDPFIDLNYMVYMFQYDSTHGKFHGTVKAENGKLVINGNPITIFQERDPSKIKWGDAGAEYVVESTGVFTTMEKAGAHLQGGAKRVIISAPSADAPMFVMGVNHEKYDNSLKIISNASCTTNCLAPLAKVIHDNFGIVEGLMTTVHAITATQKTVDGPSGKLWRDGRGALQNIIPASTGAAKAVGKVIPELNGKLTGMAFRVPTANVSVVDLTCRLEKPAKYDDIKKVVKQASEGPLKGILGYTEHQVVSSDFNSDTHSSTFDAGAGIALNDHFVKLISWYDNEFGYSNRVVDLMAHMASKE
Chain of Heat shock cognate 71 kDa protein (P11142 whole entry): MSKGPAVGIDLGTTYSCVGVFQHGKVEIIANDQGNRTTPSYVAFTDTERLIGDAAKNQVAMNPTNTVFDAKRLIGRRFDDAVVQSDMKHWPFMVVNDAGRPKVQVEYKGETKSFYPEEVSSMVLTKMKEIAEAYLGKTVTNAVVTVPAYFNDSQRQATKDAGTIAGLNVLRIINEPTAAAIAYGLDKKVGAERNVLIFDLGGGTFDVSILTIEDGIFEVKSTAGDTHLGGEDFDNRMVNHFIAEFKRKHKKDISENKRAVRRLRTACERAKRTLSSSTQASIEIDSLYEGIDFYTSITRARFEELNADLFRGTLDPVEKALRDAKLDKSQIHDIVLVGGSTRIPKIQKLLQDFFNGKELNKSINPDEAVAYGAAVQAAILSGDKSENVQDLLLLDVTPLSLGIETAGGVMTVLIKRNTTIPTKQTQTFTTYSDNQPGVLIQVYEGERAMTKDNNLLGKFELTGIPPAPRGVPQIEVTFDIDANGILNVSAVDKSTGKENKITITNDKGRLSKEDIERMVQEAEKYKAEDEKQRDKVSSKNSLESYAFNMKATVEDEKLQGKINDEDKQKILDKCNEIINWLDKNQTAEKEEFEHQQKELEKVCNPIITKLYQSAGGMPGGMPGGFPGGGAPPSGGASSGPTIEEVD
Chain of Cyclin-dependent kinase 5/CDK5 activator 1 (Q00535 whole entry): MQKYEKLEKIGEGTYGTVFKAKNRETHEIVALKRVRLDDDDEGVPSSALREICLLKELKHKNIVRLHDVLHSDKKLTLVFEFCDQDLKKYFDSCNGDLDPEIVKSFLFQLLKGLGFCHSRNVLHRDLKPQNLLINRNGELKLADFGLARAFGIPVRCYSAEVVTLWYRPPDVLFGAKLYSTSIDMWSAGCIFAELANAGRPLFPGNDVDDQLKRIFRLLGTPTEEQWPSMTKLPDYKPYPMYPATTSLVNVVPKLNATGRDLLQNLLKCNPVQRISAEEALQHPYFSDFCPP
Chain of Cyclin-dependent kinase 5/CDK5 activator 1 (Q15078 whole entry, further chain): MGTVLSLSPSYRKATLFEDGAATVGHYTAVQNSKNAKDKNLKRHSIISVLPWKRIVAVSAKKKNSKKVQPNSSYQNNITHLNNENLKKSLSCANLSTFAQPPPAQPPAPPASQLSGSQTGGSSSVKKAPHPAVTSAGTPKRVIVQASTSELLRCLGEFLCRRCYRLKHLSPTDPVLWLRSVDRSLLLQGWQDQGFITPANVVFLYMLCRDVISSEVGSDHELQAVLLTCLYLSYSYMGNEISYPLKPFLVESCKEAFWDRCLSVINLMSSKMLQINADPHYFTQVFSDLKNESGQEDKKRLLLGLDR
Chain of Neurotensin receptor type 1 (P30989 whole entry): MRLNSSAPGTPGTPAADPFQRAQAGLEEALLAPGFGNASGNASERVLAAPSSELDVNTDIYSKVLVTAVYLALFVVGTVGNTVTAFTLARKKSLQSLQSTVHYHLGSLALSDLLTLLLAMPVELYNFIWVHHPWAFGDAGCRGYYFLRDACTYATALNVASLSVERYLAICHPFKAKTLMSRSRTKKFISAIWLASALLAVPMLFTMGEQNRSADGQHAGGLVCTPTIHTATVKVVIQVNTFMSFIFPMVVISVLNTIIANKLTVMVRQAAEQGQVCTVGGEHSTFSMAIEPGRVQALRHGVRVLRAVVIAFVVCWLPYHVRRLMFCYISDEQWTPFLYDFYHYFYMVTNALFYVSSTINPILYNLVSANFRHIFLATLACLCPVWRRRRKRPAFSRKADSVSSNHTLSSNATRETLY
Chain of Paired box protein Pax-8 (Q06710 whole entry): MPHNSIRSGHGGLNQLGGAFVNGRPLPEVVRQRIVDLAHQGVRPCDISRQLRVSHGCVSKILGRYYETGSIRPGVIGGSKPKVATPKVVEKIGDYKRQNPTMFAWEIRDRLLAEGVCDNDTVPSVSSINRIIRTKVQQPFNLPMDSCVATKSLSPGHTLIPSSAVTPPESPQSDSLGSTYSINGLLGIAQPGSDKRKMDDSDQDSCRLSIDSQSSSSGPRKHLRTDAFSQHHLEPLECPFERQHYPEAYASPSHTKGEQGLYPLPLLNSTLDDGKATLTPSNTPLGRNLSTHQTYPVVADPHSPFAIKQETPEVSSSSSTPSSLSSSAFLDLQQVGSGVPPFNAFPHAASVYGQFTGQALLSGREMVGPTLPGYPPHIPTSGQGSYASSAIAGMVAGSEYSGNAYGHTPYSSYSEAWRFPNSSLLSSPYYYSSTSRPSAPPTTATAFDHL
Chain of Wee1-like protein kinase (P30291 whole entry): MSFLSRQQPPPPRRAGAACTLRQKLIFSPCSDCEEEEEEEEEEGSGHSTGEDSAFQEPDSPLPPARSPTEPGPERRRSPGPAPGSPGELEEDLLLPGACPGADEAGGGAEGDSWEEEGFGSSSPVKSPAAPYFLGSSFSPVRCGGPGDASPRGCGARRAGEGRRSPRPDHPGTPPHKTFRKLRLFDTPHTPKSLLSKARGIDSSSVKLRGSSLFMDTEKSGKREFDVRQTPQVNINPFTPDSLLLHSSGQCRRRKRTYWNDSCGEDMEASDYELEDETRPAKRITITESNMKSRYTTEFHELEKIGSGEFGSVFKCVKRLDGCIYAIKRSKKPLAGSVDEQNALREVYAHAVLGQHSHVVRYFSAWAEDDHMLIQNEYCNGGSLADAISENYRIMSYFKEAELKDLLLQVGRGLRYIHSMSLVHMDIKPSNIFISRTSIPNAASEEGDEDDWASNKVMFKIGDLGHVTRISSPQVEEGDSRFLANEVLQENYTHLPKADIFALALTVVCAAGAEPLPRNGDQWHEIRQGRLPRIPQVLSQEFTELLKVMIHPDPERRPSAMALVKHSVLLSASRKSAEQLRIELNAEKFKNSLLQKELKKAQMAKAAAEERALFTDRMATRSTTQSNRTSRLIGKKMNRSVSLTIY

For `Cn1c(=O)c2c(nc(S)n2Cc2ccccc2Cl)n(C)c1=O`, the Ki [1] was 25.4 µM (inactive).
With `Oc1ccc(/C=N/Nc2ccc(C(F)(F)F)cn2)cc1` the AC50 [2] was 37.5 µM (active), the EC50 (H4) was > 120 µM (not active) and the EC50 [3] was 0.35 µM (active). For the same compound, the IC50 [4] was 28.9 µM (active), the EC50 [5] was < 0.1 µM (inconclusive) and the AC50 [6] was 19.9 µM (active). The EC50 [7] was 0.998 µM (active) and the EC50 [8] was 0.329 µM (active).
With `CC[C@@H](C(=O)[C@@H](C)[C@@H](O)[C@H](C)CCc1ccc(C)c(O)c1C(=O)O)[C@H]1O[C@](CC)([C@H]2CC[C@](O)(CC)[C@H](C)O2)C[C@@H]1C` [LASALOCID A SODIUM] the IC50 (Vero [9]) was 8.3 µM (active), the CC50 (Vero [10]) was 19.4 µM (active) and the EC50 [11] was 30.5 µM (inactive). For the same compound, the AC50 (Paired box protein Pax-8) was 3.52 µM (active), the AC50 (INS1) was 2.64 µM (active) and the AC50 [12] was 7.93 µM (active). The AC50 [13] was 8.23 µM (active), the AC50 [14] was 40.7 µM (active) and the EC50 [15] was 5.96 µM (active).
In the case of `Cc1cc(O)nc(-n2nc(C)cc2NC(=O)c2ccc(Br)cc2)n1`, the EC50 [16] is reported as > 49.7 µM (inactive) and the EC50 (Wee1-like protein kinase) is reported as > 49.7 µM (inactive).
With `Cc1cc(C)c2c(c1)C1C=CCC1C(C(=O)O)N2` (configuration not stated) the IC50 [17] was 24.7 µM (active), the IC50 [18] was 70.2 µM (active) and the IC50 [19] was > 100 µM (inactive). For the same compound, the IC50 [20] was > 100 µM (not active), the IC50 [21] was > 100 µM (inactive) and the IC50 [22] was > 100 µM (not active).
In the case of `COc1ccc(Oc2c(Cl)cnn(-c3cccc(C)c3C)c2=O)cc1`, the IC50 [23] is reported as 12.5 µM (inactive).
